Source: PubChem BioAssay (NCI)
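48-hour exposure; five concentrations; linearly interpolated endpoints. Definition used: TGI = concentration required for complete inhibition of growth.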

Legend:
Test in all cases: growth of human tumour cells (NCI), 48 h
[1] = tested on: MALME-3M melanoma
[2] = tested on: HCC-2998 colon
[3] = tested on: T-47D breast
[4] = tested on: ACHN renal
[5] = tested on: CAKI-1 renal
[6] = tested on: SK-MEL-28 melanoma
[7] = tested on: M14 melanoma
[8] = tested on: EKVX NSCLC
[9] = tested on: MDA-N
[10] = tested on: UO-31 renal
[11] = tested on: NCI-H23 lung
[12] = tested on: K-562 leukemia

Row | SMILES | TGI [1] [µM] | TGI [2] [µM] | TGI [3] [µM] | TGI [4] [µM] | TGI [5] [µM] | TGI [6] [µM] | TGI [7] [µM] | TGI [8] [µM] | TGI [9] [µM] | TGI [10] [µM] | TGI [11] [µM] | TGI [12] [µM]
1 | CN=c1sc2c(n1C)C(=O)c1ccccc1C2=O | 1.14 | 20.4 | 17.5 | 19.2 | 15.5 | 3.61 | 3.01 | 24.3 | 0.467 | 19.6 | 2.38 | 12.2
2 | Cc1ccc(OCC2OC(n3cnc4c(Cl)nc(Nc5cc(Cl)cc(Cl)c5)nc43)CC2Oc2ccc(C)cc2)cc1 (configuration not stated) | > 100 | > 100 | > 100 | > 100 | > 100 | > 100 | > 100 | > 100 | > 100 | > 100 | > 100 | > 100
3 | [B]C(=O)NC(CC(C)C)C(=O)NCC(=O)NC1c2ccsc2C(=O)C1O (configuration not stated) (tested in a mixture with another compound) | > 100 | > 100 | > 100 | > 100 | > 100 | > 100 | > 100 | > 100 | > 100 | > 100 | > 100 | > 31.6
4 | Oc1c(N2CCCCC2)cc(-c2cc(N3CCCCC3)c(O)c3ccccc23)c2ccccc12 | 24.3 | > 100 | > 100 | > 100 | > 100 | 40.9 | 32 | > 100 | 33.5 | > 100 | 79.7 | > 100
5 | C=C1CC[C@@H](CCC2CCC3(OC2)O[C@]2(O)CC[C@@]3(C)OC2(C)C)C(C)(C)[C@H]1C/C=C1\CCOC1=O (some centres not stated) | 55.2 | > 53.3 | 90.3 | > 100 | > 88.1 | > 100 | > 100 | > 71.5 | > 100 | > 100 | > 100 | 26.5
6 | COC(=O)[C@H](Cc1ccccc1)NC(=O)c1ccc(CNC(=O)/C=C/c2csc(-c3ccccc3)n2)cc1 | 11.8 | 19.4 | 7.12 | 44 | > 28.7 | 10.9 | 3.81 | > 88.5 | 15.5 | 27.3 | > 87.4 | > 31.9
7 | CCN(/C=C1/C(=O)C(c2ccccc2)N(c2ccccc2)C1=O)CC (configuration not stated) | > 10 | > 10 | > 10 | > 10 | > 10 | > 10 | > 10 | > 10 | > 10 | > 10 | > 10 | > 10
8 | COc1ccc(/C(Nc2ccccc2)=C(\CCl)c2ccccc2)cc1OC | > 100 | > 100 | > 100 | > 100 | > 100 | > 100 | > 100 | > 100 | > 100 | > 100 | > 100 | 64.9
9 | O=c1cc(Nc2cccc(O)c2)[nH]c(=O)[nH]1 | > 100 | > 100 | > 100 | > 100 | > 100 | > 100 | > 100 | > 100 | > 100 | > 100 | > 100 | > 100
10 | CCOC(=O)c1c(NC(=O)c2ccccc2)c(C#N)c2n1CCCCC2 | > 100 | > 100 | > 100 | > 100 | > 100 | > 100 | > 100 | > 100 | > 100 | > 100 | > 100 | > 100
11 | C[C@@H]1CC[C@]2(C)C3(C)CC[C@]2(OC3=O)[C@@]12CC(c1ccoc1)OC2=O (some centres not stated) | 41.2 | > 100 | > 100 | 43.6 | 72.6 | 66.3 | 57.2 | > 100 | > 100 | 45.5 | > 100 | 76.3
